Read-outs that look alike come from different tables or passages of the source.
What was measured:
P-gp expressing cells = conditions: P-gp reversal; cited from earlier work
S1-M1-3.2 cells = conditions: for Per Cent Survival with 3.2 μM mitoxantrone / Per Cent Survival Alone / Difference Score: S1-M1-3.2 cells; for Per Cent Survival Alone: 3 days; for Difference Score: survival alone minus survival with 3.2 μM mitoxantrone
Method: One of the first reported molecules with reversing activity was verapamil, a calcium channel blocker. […] Cells were plated into 96-well dishes (100 μl/well) in growth medium supplemented with 5% FBS. […] Reversal agents were tested from 0.1-80 μM (triplicate points per dose). In parallel wells, cells were grown in the presence of the reversal agent alone.
The Difference Score is the difference in the percentage of cells surviving when the drug was given alone minus the percentage of cells surviving when the drug was given along with the antitumor agent.
Cell survival was estimated using the Sulforhodamine (SRB) assay.

S1-B1-20 cells = experiment: Reversal of resistance in P-gp expressing cells, alone or with 21 μM bisantrene; format: cell-based, human; parameters: Difference Score: unit not given here; conditions: for Per Cent Survival with 21 μM bisantrene / Per Cent Survival Alone / Difference Score: S1-B1-20 cells; for Difference Score: survival alone minus survival with 21 μM bisantrene
Method: To determine the specificity of FTC for non P-gp multidrug resistance, FTC was tested on S1-B1-20 cells which were selected for resistance to bisantrene and which express high levels of P-gp (Table 9)(Zhang, et al, Oncol. Res. 6291-301 (1994)). […] The 21 μM concentration of bisantrene is not inhibitory to the growth of the cells. Values shown are mean ± standard deviation from triplicate test wells.

COc1ccc(C(C#N)(CCCCCN2CCc3cc(OC)c(OC)cc3C2)Sc2ccc(C)cc2)cc1OC (stereo not drawn) [α-(3,4-dimethoxyphenyl)-3,4-dihydro-6,7-dimethoxy-α-[(4-methylphenyl)thio]-2(1H)-isoquinolineheptanenitrile, reference compound]
potency relative to verapamil (P-gp expressing cells): at least 10 fold
Per Cent Survival with 3.2 μM mitoxantrone (S1-M1-3.2 cells; drug 0.1 μM): 98 ± 2 Per Cent
Per Cent Survival Alone (S1-M1-3.2 cells; drug 0.1 μM alone): 98 ± 2 Per Cent
Difference Score (S1-M1-3.2 cells; drug 0.1 μM): 0
Per Cent Survival with 3.2 μM mitoxantrone (S1-M1-3.2 cells; drug 0.5 μM): 98 ± 0 Per Cent
Per Cent Survival Alone (S1-M1-3.2 cells; drug 0.5 μM alone): 100 ± 0 Per Cent
Difference Score (S1-M1-3.2 cells; drug 0.5 μM): 2
Per Cent Survival with 3.2 μM mitoxantrone (S1-M1-3.2 cells; drug 1 μM): 99 ± 2 Per Cent
Per Cent Survival Alone (S1-M1-3.2 cells; drug 1 μM alone): 101 ± 1 Per Cent
Difference Score (S1-M1-3.2 cells; drug 1 μM): 2
Per Cent Survival with 3.2 μM mitoxantrone (S1-M1-3.2 cells; drug 5 μM): 63 ± 8 Per Cent
Per Cent Survival Alone (S1-M1-3.2 cells; drug 5 μM alone): 78 ± 8 Per Cent
Difference Score (S1-M1-3.2 cells; drug 5 μM): 15
Per Cent Survival with 3.2 μM mitoxantrone (S1-M1-3.2 cells; drug 10 μM): 36 ± 11 Per Cent
Per Cent Survival Alone (S1-M1-3.2 cells; drug 10 μM alone): 39 ± 18 Per Cent
Difference Score (S1-M1-3.2 cells; drug 10 μM): 3
Per Cent Survival with 3.2 μM mitoxantrone (S1-M1-3.2 cells; drug 20 μM): 21 ± 10 Per Cent
Per Cent Survival Alone (S1-M1-3.2 cells; drug 20 μM alone): 21 ± 13 Per Cent
Difference Score (S1-M1-3.2 cells; drug 20 μM): 0
Per Cent Survival with 3.2 μM mitoxantrone (S1-M1-3.2 cells; drug 40 μM): 16 ± 4 Per Cent
Per Cent Survival Alone (S1-M1-3.2 cells; drug 40 μM alone): 16 ± 5 Per Cent
Difference Score (S1-M1-3.2 cells; drug 40 μM): 0
Per Cent Survival with 3.2 μM mitoxantrone (S1-M1-3.2 cells; drug 80 μM): 13 ± 2 Per Cent
Per Cent Survival Alone (S1-M1-3.2 cells; drug 80 μM alone): 13 ± 1 Per Cent
Difference Score (S1-M1-3.2 cells; drug 80 μM): 0
reversal activity in S1-M1-3.2 cells (in words) (S1-M1-3.2 cells; with mitoxantrone): not reversed
Per Cent Survival with 21 μM bisantrene (S1-B1-20 cells; drug 0.1 μM): 92 ± 1 Per Cent
Per Cent Survival Alone (S1-B1-20 cells; drug 0.1 μM alone): 99 ± 4 Per Cent
Difference Score (S1-B1-20 cells; drug 0.1 μM): 7
Per Cent Survival with 21 μM bisantrene (S1-B1-20 cells; drug 0.5 μM): 10 ± 0 Per Cent
Per Cent Survival Alone (S1-B1-20 cells; drug 0.5 μM alone): 97 ± 1 Per Cent
Difference Score (S1-B1-20 cells; drug 0.5 μM): 87
Per Cent Survival with 21 μM bisantrene (S1-B1-20 cells; drug 1 μM): 4 ± 0 Per Cent
Per Cent Survival Alone (S1-B1-20 cells; drug 1 μM alone): 94 ± 2 Per Cent
Difference Score (S1-B1-20 cells; drug 1 μM): 90
Per Cent Survival with 21 μM bisantrene (S1-B1-20 cells; drug 5 μM): 4 ± 0 Per Cent
Per Cent Survival Alone (S1-B1-20 cells; drug 5 μM alone): 90 ± 1 Per Cent
Difference Score (S1-B1-20 cells; drug 5 μM): 86
Per Cent Survival with 21 μM bisantrene (S1-B1-20 cells; drug 10 μM): 4 ± 0 Per Cent
Per Cent Survival Alone (S1-B1-20 cells; drug 10 μM alone): 50 ± 1 Per Cent
Difference Score (S1-B1-20 cells; drug 10 μM): 46
Per Cent Survival with 21 μM bisantrene (S1-B1-20 cells; drug 20 μM): 4 ± 0 Per Cent
Per Cent Survival Alone (S1-B1-20 cells; drug 20 μM alone): 14 ± 1 Per Cent
Difference Score (S1-B1-20 cells; drug 20 μM): 10
Per Cent Survival with 21 μM bisantrene (S1-B1-20 cells; drug 40 μM): 4 ± 0 Per Cent
Per Cent Survival Alone (S1-B1-20 cells; drug 40 μM alone): 4 ± 0 Per Cent
Difference Score (S1-B1-20 cells; drug 40 μM): 0
Per Cent Survival with 21 μM bisantrene (S1-B1-20 cells; drug 80 μM): 4 ± 0 Per Cent
Per Cent Survival Alone (S1-B1-20 cells; drug 80 μM alone): 4 ± 0 Per Cent
Difference Score (S1-B1-20 cells; drug 80 μM): 0
reversal of resistance in P-gp positive S1-B1-20 cells (in words) (S1-B1-20 cells; bisantrene-selected): reversible

— patent US20020169111A1, “Reversal of multidrug resistance in human colon carcinoma cells” (American Cyanamid Comany, priority 1998, published 2002)
